Experimental data from patent US11691969B2, “Pyridazinones as PARP7 inhibtors” (Ribon Therapeutics, Inc., priority 2019, dated 2023).

The compounds below were run against PARP7 (Homo sapiens (Human), UniProt Q7Z3E1) (assay: TR-FRET assay: displacement of biotinylated Probe A from the TIPARP active site (Enzymatic Assay for Inhibition of PARP7)). Details: TIPARP 6 nM, Probe A 2 nM, 25° C.
Format: binding
Method: Example A. Enzymatic Assay for Inhibition of PARP7
Displacement of Probe A, a biotinylated probe binding to the TIPARP active site, was measured using a time-resolved fluorescence energy transfer (TR-FRET) assay. 20 nL of a dose response curve of each test compound was spotted in black 384-well polystyrene proxiplates (Perkin Elmer) using a Mosquito (TTP Labtech). Reactions were performed in a 8 μl volume by adding 6 μL of TIPARP and Probe A in assay buffer (20 mM HEPES pH=8, 100 mM NaCl, 0.1% bovine serum albumin, 2 mM DTT and 0.002% Tween20), incubating with test compound at 25° C. for 30 min, then adding 2 μL of ULight-anti 6×His and LANCE Eu-W1024 labeled streptavidin (Perkin Elmer). The final concentrations of TIPARP and Probe A were 6 nM and 2 nM, respectively. The final concentration of ULight-anti 6×His and LANCE Eu-W1024 labeled streptavidin were 4 nM and 0.25 nM, respectively. Reactions were incubated at 25° C. for an additional 30 min, then read on an Envision platereader equipped with a LANCE/DELFIA top mirror (Perkin Elmer) using excitation of 320 nm and emission of 615 nm and […] with a […]. The ratio of the 665/615 nm emission were calculated for each well to determine the amount of complex of TIPARP and Probe Ain each well. Control wells containing a negative control of 0.25% DMSO vehicle or a positive control of 100 μM 5-(5-(piperidin-4-yloxy)isoindolin-2-yl)-4-(trifluoromethyl)pyridazin-3(2H)-one were used to calculate the % inhibition as described below:
[formula] where TRFcmpd is the TR-FRET ratio from the compound treated well, TRFmin is the TR-FRET ratio from the 5-(5-(piperidin-4-yloxy)isoindolin-2-yl)-4-(trifluoromethyl)pyridazin-3(2H)-one—treated positive control well and TRFmax is the TR-FRET ratio from the DMSO-treated negative control well. The % inhibition values were plotted as a function of compound concentration and the following 4-parameter fit was applied to derive the IC50 values:
[formula] where top and bottom are normally allowed to float, but may be fixed at 100 or 0 respectively in a 3-parameter fit. The Hill Coefficient is normally allowed to float but may also be fixed at 1 in a 3-parameter fit. Y is the % inhibition and X is the compound concentration. Synthesis of Probe A

PARP7, sequence (Q7Z3E1 whole entry): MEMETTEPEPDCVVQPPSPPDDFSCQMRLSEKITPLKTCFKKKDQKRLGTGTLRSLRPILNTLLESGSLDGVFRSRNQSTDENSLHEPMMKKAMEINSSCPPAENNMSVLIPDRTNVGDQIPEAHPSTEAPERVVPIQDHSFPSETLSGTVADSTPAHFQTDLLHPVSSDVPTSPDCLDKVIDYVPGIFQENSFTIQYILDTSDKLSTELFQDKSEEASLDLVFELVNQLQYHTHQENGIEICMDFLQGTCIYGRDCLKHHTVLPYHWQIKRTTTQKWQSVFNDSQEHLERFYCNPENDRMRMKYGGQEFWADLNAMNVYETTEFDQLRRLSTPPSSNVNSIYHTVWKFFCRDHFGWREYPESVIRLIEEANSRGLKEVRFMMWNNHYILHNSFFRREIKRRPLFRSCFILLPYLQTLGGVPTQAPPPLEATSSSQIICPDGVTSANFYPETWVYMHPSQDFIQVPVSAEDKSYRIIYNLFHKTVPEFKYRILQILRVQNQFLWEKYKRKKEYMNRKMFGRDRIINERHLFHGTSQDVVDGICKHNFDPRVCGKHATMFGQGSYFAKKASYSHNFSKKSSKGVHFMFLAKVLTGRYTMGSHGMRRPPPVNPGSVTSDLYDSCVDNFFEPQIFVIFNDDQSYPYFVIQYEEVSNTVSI

Structure (SMILES)	IC50 [nM]
C[C@@H](COC1CCN(C2CCN(c3ncc(C(F)(F)F)cn3)CC2)C1)Nc1cn[nH]c(=O)c1C(F)(F)F (stereo partly drawn) [Example 21, 4-(trifluoromethyl)-5-(((2S)-1-((1-(1-(5-(trifluoromethyl)pyrimidin-2-yl)piperidin-4-yl)pyrrolidin-3-yl)oxy)propan-2-yl)amino)pyridazin-3(2H)-one]	100 to 1000
Cc1cnc(N2CCC(N3CC[C@H](OC[C@H](C)Oc4cn[nH]c(=O)c4C(F)(F)F)C3=O)CC2)nc1 [Example 49A, 5-(((S)-1-(((S)-1-(1-(5-methylpyrimidin-2-yl)piperidin-4-yl)-2-oxopyrrolidin-3-yl)oxy)propan-2-yl)oxy)-4-(trifluoromethyl)pyridazin-3(2H)-one]	100 to 1000
C[C@@H](COC1CCN(C2CCN(c3ncc(C(F)F)cn3)CC2)C1=O)Oc1cn[nH]c(=O)c1C(F)(F)F (stereo partly drawn) [Example 27, 5-(((2S)-1-((1-(1-(5-(difluoromethyl)pyrimidin-2-yl)piperidin-4-yl)-2-oxopyrrolidin-3-yl)oxy)propan-2-yl)oxy)-4-(trifluoromethyl)pyridazin-3(2H)-one]	< 100
C[C@@H](CO[C@H]1CCN(C2CCN(c3ccc(C#N)cn3)CC2)C1=O)Nc1cn[nH]c(=O)c1C(F)(F)F [Example 14A, 6-(4-((S)-2-oxo-3-((S)-2-((6-oxo-5-(trifluoromethyl)-1,6-dihydropyridazin-4-yl)amino)propoxy)pyrrolidin-1-yl)piperidin-1-yl)nicotinonitrile]	≥ 1000
C[C@@H](COCC(=O)N(C)C1CCN(c2ncc(C(F)(F)F)cn2)CC1)Oc1cn[nH]c(=O)c1Br [Example 28, (S)-2-(2-((5-bromo-6-oxo-1,6-dihydropyridazin-4-yl)oxy)propoxy)-N-methyl-N-(1-(5-(trifluoromethyl)pyrimidin-2-yl)piperidin-4-yl)acetamide]	< 100
C[C@@H](COC1CCN(C2CCN(c3ncc(C(F)(F)F)cn3)CC2)C1=O)Nc1cn[nH]c(=O)c1Cl (stereo partly drawn) [Example 11, 4-chloro-5-((S)-1-(2-oxo-1-(1-(5-(trifluoromethyl)pyrimidin-2-yl)piperidin-4-yl)pyrrolidin-3-yloxy)propan-2-ylamino)pyridazin-3(2H)-one]	< 100
C[C@@H](CO[C@@H]1CCN(C2CCN(c3ncc(C(F)(F)F)cn3)CC2)C1=O)Oc1cn[nH]c(=O)c1C(F)(F)F [Example 20B, 5-(((S)-1-(((R)-2-oxo-1-(1-(5-(trifluoromethyl)pyrimidin-2-yl)piperidin-4-yl)pyrrolidin-3-yl)oxy)propan-2-yl)oxy)-4-(trifluoromethyl)pyridazin-3(2H)-one]	< 100
C[C@@H](COC1CCN(C2CCN(c3cnc(C(F)(F)F)cn3)CC2)C1=O)Nc1cn[nH]c(=O)c1Br (stereo partly drawn) [Example 12, 4-bromo-5-(((2S)-1-((2-oxo-1-(1-(5-(trifluoromethyl)pyrazin-2-yl)piperidin-4-yl)pyrrolidin-3-yl)oxy)propan-2-yl)amino)pyridazin-3(2H)-one]	< 100
C[C@@H](CO[C@H]1C(=O)N(C2CCN(c3ncc(C(F)(F)F)cn3)CC2)C[C@@H]1C)Nc1cn[nH]c(=O)c1C(F)(F)F [Example 37B, 5-(((S)-1-(((3R,4S)-4-methyl-2-oxo-1-(1-(5-(trifluoromethyl)pyrimidin-2-yl)piperidin-4-yl)pyrrolidin-3-yl)oxy)propan-2-yl)amino)-4-(trifluoromethyl)pyridazin-3(2H)-one]	< 100
C[C@@H](COCC(=O)N(C)C1CCN(c2ncc(C(F)(F)F)cn2)CC1)Nc1cn[nH]c(=O)c1C(F)(F)F [Example 2, (S)—N-methyl-2-(2-(6-oxo-5-(trifluoromethyl)-1,6-dihydropyridazin-4-ylamino)propoxy)-N-(1-(5-(trifluoromethyl)pyrimidin-2-yl)piperidin-4-yl)acetamide]	< 100
C[C@@H](CO[C@@H]1CCN(C2CCN(c3ncc(C(F)(F)F)cn3)CC2)C1=O)Oc1cn[nH]c(=O)c1Cl [Example 47B, 4-chloro-5-(((S)-1-(((R)-2-oxo-1-(1-(5-(trifluoromethyl)pyrimidin-2-yl)piperidin-4-yl)pyrrolidin-3-yl)oxy)propan-2-yl)oxy)pyridazin-3(2H)-one]	< 100
C[C@@H](CO[C@@H]1CCN([C@H]2CCN(c3ccc(C#N)cn3)CC2(F)F)C1=O)Nc1cn[nH]c(=O)c1C(F)(F)F (single isomer, unassigned) [Example 40B]	< 100
C[C@@H](CN[C@@H]1CCN(C2CCN(c3ncc(C(F)(F)F)cn3)CC2)C1=O)Nc1cn[nH]c(=O)c1C(F)(F)F [Example 26B, 5-(((S)-1-(((R)-2-oxo-1-(1-(5-(trifluoromethyl)pyrimidin-2-yl)piperidin-4-yl)pyrrolidin-3-yl)amino)propan-2-yl)amino)-4-(trifluoromethyl)pyridazin-3(2H)-one]	< 100

Now from value to compound:

IC50 [nM]	Structure (SMILES)
< 100	C[C@@H](CN(C)C1CCN(C2CCN(c3ncc(C(F)(F)F)cn3)CC2)C1=O)Nc1cn[nH]c(=O)c1C(F)(F)F (stereo partly drawn) [Example 29, 5-(((S)-1-(methyl(2-oxo-1-(1-(5-(trifluoromethyl)pyrimidin-2-yl)piperidin-4-yl)pyrrolidin-3-yl)amino)propan-2-yl)amino)-4-(trifluoromethyl)pyridazin-3(2H)-one]
< 100	C[C@@H](CO[C@@H]1CCN(C2CCN(c3ncc(C(F)(F)F)cn3)CC2O)C1=O)Oc1cn[nH]c(=O)c1C(F)(F)F (stereo partly drawn) [Example 64B, Syn-5-(((2S)-1-(((3R)-1-(3-hydroxy-1-(5-(trifluoromethyl)pyrimidin-2-yl)piperidin-4-yl)-2-oxopyrrolidin-3-yl)oxy)propan-2-yl)oxy)-4-(trifluoromethyl)pyridazin-3(2H)-one]
100 to 1000	COC[C@@H](CO[C@H]1CCN(C2CCN(c3cnc(C(F)(F)F)cn3)CC2)C1=O)Nc1cn[nH]c(=O)c1C(F)(F)F [Example 18A, 5-(((S)-1-methoxy-3-(((S)-2-oxo-1-(1-(5-(trifluoromethyl)pyrazin-2-yl)piperidin-4-yl)pyrrolidin-3-yl)oxy)propan-2-yl)amino)-4-(trifluoromethyl)pyridazin-3(2H)-one]
100 to 1000	COC[C@@H](CO[C@H]1CCN(C2CCN(c3ncc(C)cn3)CC2)C1=O)Oc1cn[nH]c(=O)c1C(F)(F)F [Example 52A, 5-(((S)-1-methoxy-3-(((S)-1-(1-(5-methylpyrimidin-2-yl)piperidin-4-yl)-2-oxopyrrolidin-3-yl)oxy)propan-2-yl)oxy)-4-(trifluoromethyl)pyridazin-3(2H)-one]
< 100	C[C@@H](COC1CCN(C2CCN(c3ccc(C#N)cn3)CC2)C1=O)Oc1cn[nH]c(=O)c1C(F)(F)F (stereo partly drawn) [Example 30, 6-(4-(2-oxo-3-((S)-2-((6-oxo-5-(trifluoromethyl)-1,6-dihydropyridazin-4-yl)oxy)propoxy)pyrrolidin-1-yl)piperidin-1-yl)nicotinonitrile]
< 100	C[C@@H](CO[C@@H]1CCN(C2CCN(c3ncc(Cl)cn3)CC2)C1=O)Nc1cn[nH]c(=O)c1C(F)(F)F [Example 16, 5-(((S)-1-(((R)-1-(1-(5-chloropyrimidin-2-yl)piperidin-4-yl)-2-oxopyrrolidin-3-yl)oxy)propan-2-yl)amino)-4-(trifluoromethyl)pyridazin-3(2H)-one]
< 100	C[C@@H](CO[C@@H]1CCN(C2CCN(c3ncc(C(F)(F)F)cn3)CC2)C1=O)Nc1cn[nH]c(=O)c1Br [Example 32, 4-bromo-5-(((S)-1-(((R)-2-oxo-1-(1-(5-(trifluoromethyl)pyrimidin-2-yl)piperidin-4-yl)pyrrolidin-3-yl)oxy)propan-2-yl)amino)pyridazin-3(2H)-one]
100 to 1000	COC[C@@H](CO[C@H]1CCN(C2CCN(c3ncc(C(F)(F)F)cn3)CC2)C1=O)Nc1cn[nH]c(=O)c1C(F)(F)F [Example 19A, 5-(((S)-1-methoxy-3-(((S)-2-oxo-1-(1-(5-(trifluoromethyl)pyrimidin-2-yl)piperidin-4-yl)pyrrolidin-3-yl)oxy)propan-2-yl)amino)-4-(trifluoromethyl)pyridazin-3(2H)-one]
≥ 1000	C[C@H](CN[C@H]1CCN(C2CCN(c3ncc(C(F)(F)F)cn3)CC2)C1=O)Nc1cn[nH]c(=O)c1C(F)(F)F (single isomer, unassigned) [Example 26C]
≥ 1000	C[C@@H]1CN(C2CCN(c3ncc(C(F)(F)F)cn3)CC2)C(=O)[C@H]1OC[C@H](C)Nc1cn[nH]c(=O)c1C(F)(F)F [Example 37A, 5-(((S)-1-(((3S,4R)-4-methyl-2-oxo-1-(1-(5-(trifluoromethyl)pyrimidin-2-yl)piperidin-4-yl)pyrrolidin-3-yl)oxy)propan-2-yl)amino)-4-(trifluoromethyl)pyridazin-3(2H)-one]
